Test results published in patent publication US20110295343A1, “NEAR-INFRARED ELECTROMAGNETIC MODIFICATION OF CELLULAR STEADY-STATE MEMBRANE POTENTIALS” (priority 2008, published 2011).
Where “and” joins values, the source holds several entries; their conditions need not be identical. Equal values may be shown once.

Test system: MRSA (ATCC BAA-43)
Assay: MRSA/antimicrobial potentiation, CFU on TSB agar with and without antibiotic after laser (Example XXII, Experiments 1-4)
Assay type: cell-based, Staphylococcus aureus subsp. aureus
Details: for CFU (single plate count): 0.5 μg/ml penicillin G or 4 μg/ml erythromycin, plates 1-5; for AVG (CFU): mean of 5 plates; for Drug Effect: CFU with drug relative to without drug; for Laser Effect (+Drug): Exp vs Cont, both with drug; for Laser Effect (+Meth): both on 30 μg/ml methicillin; for Meth Effect: CFU with methicillin / without; for AVG: mean of plates; for CFU: replicate plates
Experimental: Four separate experiments have been performed.
Eight different laser dosages were used to treat a saline-suspension of logarithmically growing MRSA, labeled A1 to H1.
The treated and a control untreated suspension were diluted and plated in triplicate on trypic soy agar with or without 30 μg/ml methicillin After 24 hrs of growth at 37° C. colonies were counted.
CFU (colony forming units) were compared between the plates with and without methicillin for both control (untreated) and treated MRSA.
The treated and a control untreated suspension were diluted and plated in triplicate on trypic soy agar with or without 30 μg/mlmethicillin.
After 24 hrs of growth at 37° C. colonies were counted.
The treated and a control untreated suspension were diluted and plated in pentuplicate on trypic soy agar with or without 30 μg/ml methicillin.

[1] = Cont (no laser), Drug yes, groups A4/C4/E4
[2] = Cont (no laser), Drug yes, groups B4/D4/F4
[3] = Exp (laser 870+930 at 5 W 14 min, then 930 at 6 W 9 min), Drug yes, groups B4/D4/F4
[4] = Exp (laser 870+930 at 5.5 W 12 min, then 930 at 8 W 6 min), Drug yes, groups A4/C4/E4
[5] = Exp#1 A1 Cont (no laser), agar with 30 μg/ml methicillin
[6] = Exp#1 A1 Exp (laser treated), agar with 30 μg/ml methicillin
[7] = Exp#1 B1 Cont (no laser), agar with 30 μg/ml methicillin
[8] = Exp#1 B1 Exp (laser treated), agar with 30 μg/ml methicillin
[9] = Exp#1 C1 Cont (no laser), agar with 30 μg/ml methicillin
[10] = Exp#1 C1 Exp (laser treated), agar with 30 μg/ml methicillin
[11] = Exp#1 D1 Cont (no laser), agar with 30 μg/ml methicillin
[12] = Exp#1 D1 Exp (laser treated), agar with 30 μg/ml methicillin
[13] = Exp#1 E1 Cont (no laser), agar with 30 μg/ml methicillin
[14] = Exp#1 E1 Exp (laser treated), agar with 30 μg/ml methicillin
[15] = Exp#1 F1 Cont (no laser), agar with 30 μg/ml methicillin
[16] = Exp#1 F1 Exp (laser treated), agar with 30 μg/ml methicillin
[17] = Exp#1 G1 Cont (no laser), agar with 30 μg/ml methicillin
[18] = Exp#1 G1 Exp (laser treated), agar with 30 μg/ml methicillin
[19] = Exp#1 H1 Cont (no laser), agar with 30 μg/ml methicillin
[20] = Exp#1 H1 Exp (laser treated), agar with 30 μg/ml methicillin
[21] = Exp#2 A2 Cont (no laser), agar with 30 μg/ml methicillin
[22] = Exp#2 A2 Exp (laser treated), agar with 30 μg/ml methicillin
[23] = Exp#2 B2 Cont (no laser), agar with 30 μg/ml methicillin
[24] = Exp#2 B2 Exp (laser treated), agar with 30 μg/ml methicillin

COc1cccc(OC)c1C(=O)N[C@@H]1C(=O)N2[C@@H]1SC(C)(C)[C@@H]2C(=O)O [Methicillin]
CFU/ml [1]: 2.59E+08 CFU/ml
CFU (single plate count) (Cont (no laser), Drug yes, groups A4/C4/E4, agar with 30 μg/ml methicillin, 24 hrs 37° C.): 97 CFU and 104 CFU and 82 CFU and 58 CFU and 90 CFU
AVG (CFU) [1]: 86.2 CFU
CFU/ml [2]: 3.98E+08 CFU/ml
CFU (single plate count) (Cont (no laser), Drug yes, groups B4/D4/F4, agar with 30 μg/ml methicillin, 24 hrs 37° C.): 149 CFU and 101 CFU and 119 CFU and 153 CFU and 141 CFU
AVG (CFU) [2]: 132.6 CFU
Drug Effect (Cont (no laser), groups A4/C4/E4): 0.94
Drug Effect (Cont (no laser), groups B4/D4/F4): 1.26
CFU/ml [3]: 1.27E+08 CFU/ml
AVG (CFU) [3]: 42.4 CFU
Drug Effect (Exp (laser 870+930 at 5 W 14 min, then 930 at 6 W 9 min), groups B4/D4/F4): 0.48
CFU/ml [4]: 1.09E+08 CFU/ml
AVG (CFU) [4]: 36.2 CFU
Drug Effect (Exp (laser 870+930 at 5.5 W 12 min, then 930 at 8 W 6 min), groups A4/C4/E4): 0.43
CFU (single plate count) (Exp (laser: 870 at 5 W and 930 at 5 W for 14 min followed by 930 at 6 W for 9 min), Drug yes, groups B4/D4/F4, 30 μg/ml methicillin): 46 CFU and 34 CFU and 42 CFU and 44 CFU
CFU (single plate count) (Exp (laser: 870 at 5.5 W and 930 at 5.5 W for 12 min followed by 930 at 8 W for 6 min), Drug yes, groups A4/C4/E4, 30 μg/ml methicillin): 37 CFU and 33 CFU and 36 CFU and 39 CFU
Laser Effect (+Drug) (laser 870+930 at 5 W 14 min, then 930 at 6 W 9 min, groups B4/D4/F4): 0.32
Laser Effect (+Drug) (laser 870+930 at 5.5 W 12 min, then 930 at 8 W 6 min, groups A4/C4/E4): 0.42
Laser Effect (+Meth) (Exp#1 A1, laser Exp / Cont): 0.7035
Meth Effect (Exp#1 A1 Cont (no laser)): 0.6956
CFU/ml [5]: 4.25E+08 CFU/ml
AVG [5]: 141.7 CFU
CFU [5]: 207 CFU and 137 CFU and 81 CFU
Meth Effect (Exp#1 A1 Exp (laser treated)): 0.7419
CFU/ml [6]: 2.99E+08 CFU/ml
AVG [6]: 99.7 CFU
CFU [6]: 99 CFU and 96 CFU and 104 CFU
Laser Effect (+Meth) (Exp#1 B1, laser Exp / Cont): 0.6693
Meth Effect (Exp#1 B1 Cont (no laser)): 0.8991
CFU/ml [7]: 5.08E+08 CFU/ml
AVG [7]: 169.3 CFU
CFU [7]: 166 CFU and 192 CFU and 150 CFU
Meth Effect (Exp#1 B1 Exp (laser treated)): 0.5657
CFU/ml [8]: 3.40E+08 CFU/ml
AVG [8]: 113.3 CFU
CFU [8]: 102 CFU and 107 CFU and 131 CFU
Laser Effect (+Meth) (Exp#1 C1, laser Exp / Cont): 0.3259
Meth Effect (Exp#1 C1 Cont (no laser)): 1.267
CFU/ml [9]: 1.22E+09 CFU/ml
AVG [9]: 406 CFU
CFU [9]: 240 CFU and 466 CFU and 512 CFU
Meth Effect (Exp#1 C1 Exp (laser treated)): 0.7192
CFU/ml [10]: 3.97E+08 CFU/ml
AVG [10]: 132.3 CFU
CFU [10]: 95 CFU and 176 CFU and 126 CFU
Laser Effect (+Meth) (Exp#1 D1, laser Exp / Cont): 1.0087
Meth Effect (Exp#1 D1 Cont (no laser)): 0.837
CFU/ml [11]: 4.62E+08 CFU/ml
AVG [11]: 154 CFU
CFU [11]: 171 CFU and 141 CFU and 150 CFU
Meth Effect (Exp#1 D1 Exp (laser treated)): 0.7627
CFU/ml [12]: 4.66E+08 CFU/ml
AVG [12]: 155.3 CFU
CFU [12]: 164 CFU and 153 CFU and 149 CFU
Laser Effect (+Meth) (Exp#1 E1, laser Exp / Cont): 1.632
Meth Effect (Exp#1 E1 Cont (no laser)): 0.5828
CFU/ml [13]: 3.94E+08 CFU/ml
AVG [13]: 131.3 CFU
CFU [13]: 147 CFU and 121 CFU and 126 CFU
Meth Effect (Exp#1 E1 Exp (laser treated)): 0.8297
CFU/ml [14]: 6.43E+08 CFU/ml
AVG [14]: 214.3 CFU
CFU [14]: 181 CFU and 232 CFU and 230 CFU
Laser Effect (+Meth) (Exp#1 F1, laser Exp / Cont): 0.9949
Meth Effect (Exp#1 F1 Cont (no laser)): 0.8735
CFU/ml [15]: 5.94E+08 CFU/ml
AVG [15]: 198 CFU
CFU [15]: 197 CFU and 188 CFU and 209 CFU
Meth Effect (Exp#1 F1 Exp (laser treated)): 0.8289
CFU/ml [16]: 5.91E+08 CFU/ml
AVG [16]: 197 CFU
CFU [16]: 206 CFU (2×) and 179 CFU
Laser Effect (+Meth) (Exp#1 G1, laser Exp / Cont): 0.9605
Meth Effect (Exp#1 G1 Cont (no laser)): 0.9792
CFU/ml [17]: 6.58E+08 CFU/ml
AVG [17]: 219.3 CFU
CFU [17]: 246 CFU and 222 CFU and 190 CFU
Meth Effect (Exp#1 G1 Exp (laser treated)): 0.8681
CFU/ml [18]: 6.32E+08 CFU/ml
AVG [18]: 210.7 CFU
CFU [18]: 193 CFU and 237 CFU and 202 CFU
Laser Effect (+Meth) (Exp#1 H1, laser Exp / Cont): 1.0381
Meth Effect (Exp#1 H1 Cont (no laser)): 0.7533
CFU/ml [19]: 5.77E+08 CFU/ml
AVG [19]: 192.3 CFU
CFU [19]: 188 CFU and 206 CFU and 183 CFU
Meth Effect (Exp#1 H1 Exp (laser treated)): 0.815
CFU/ml [20]: 5.99E+08 CFU/ml
AVG [20]: 199.7 CFU
CFU [20]: 211 CFU and 212 CFU and 176 CFU
Laser Effect (+Meth) (Exp#2 A2, laser Exp / Cont): 1.15
Meth Effect (Exp#2 A2 Cont (no laser)): 0.72
CFU/ml [21]: 1.07E+08 CFU/ml
AVG [21]: 35.7 CFU
CFU [21]: 35 CFU and 47 CFU and 25 CFU
Meth Effect (Exp#2 A2 Exp (laser treated)): 0.87
CFU/ml [22]: 1.23E+08 CFU/ml
AVG [22]: 41 CFU
CFU [22]: 39 CFU and 48 CFU and 36 CFU
Laser Effect (+Meth) (Exp#2 B2, laser Exp / Cont): 0.54
Meth Effect (Exp#2 B2 Cont (no laser)): 0.7
CFU/ml [23]: 1.49E+08 CFU/ml
AVG [23]: 49.7 CFU
CFU [23]: 47 CFU and 56 CFU and 46 CFU
Meth Effect (Exp#2 B2 Exp (laser treated)): 0.77
CFU/ml [24]: 8.00E+07 CFU/ml
AVG [24]: 26.7 CFU
CFU [24]: 27 CFU and 28 CFU and 25 CFU
Laser Effect (+Meth) (Exp#2 C2, laser Exp / Cont): 0.23
Meth Effect (Exp#2 C2 Cont (no laser)): 0.99
